In PubChem BioAssay AID330 (DTP/NCI, 2004):
Several values for one entry are separate records, joined by “and”; a condition that tells them apart may be missing. Identical values can stand only once. Toxic doses and inconclusive results are not listed. Numbered stars: 1 amine (or outer) side, 2 acyl side, 3 side chain; on linkers, the order of the positions; unused ones are H or OH. Square brackets hold non-standard residues; d marks the D form. Peptide text beside a SMILES is read from it. * marks the point of attachment. ξ: configuration not given here. X4 = CCC(=O)CC(O)CC(C)CC(N[*:1])C(=O)[*:2]; ξLeu(3ξ-OH) = CC(C)C(O)C(N)C(=O)O; ξPro(4ξ-Me) = CC1CNC(C(=O)O)C1; X3 = CCC(C)/C=C/C(=O)*; Aib = CC(C)(N)C(=O)O; X5 = CC(CN(C)C)N*; βAla = NCCC(=O)O

Test system: P388 leukemia ip, CD2F1 mice, survival T/C
Experiment: NCI In Vivo Anticancer Drug Screen. Data for tumor model P388 Leukemia (intraperitoneal) in CD2F1 (CDF1) mice
Conditions: endpoint: median survival time, higher = longer survival
How it was run: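 Mice carrying the transplanted tumor received test compound or vehicle. Survival was recorded in each group, and the value is the treated-group measurement divided by that of the vehicle-treated control group.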

[1] = dose: 60.0 mg/kg/injection, schedule: Q01DX005 (ip), vehicle: Klucel (hydroxypropylcellulose) (HPC)
[2] = dose: 120.0 mg/kg/injection, schedule: Q01DX005 (ip), vehicle: Klucel (hydroxypropylcellulose) (HPC)
[3] = dose: 240.0 mg/kg/injection, schedule: Q01DX005 (ip), vehicle: Klucel (hydroxypropylcellulose) (HPC)
[4] = dose: 100.0 mg/kg/injection, schedule: Q01DX001 (ip), vehicle: saline with Tween-80
[5] = dose: 200.0 mg/kg/injection, schedule: Q01DX001 (ip), vehicle: saline with Tween-80

C(=C\c1cc2ccc(C3=NCCN3)cc2[nH]1)/c1ccc(C2=NCCN2)cc1
T/C (dose: 6.25 mg/kg/injection, schedule: Q04DX003 (ip), vehicle: saline): 118 % of control

CCOC1(OCC)C(=O)N(c2ccc(Cl)c(Cl)c2)C(=O)N1c1ccc(Cl)c(Cl)c1
T/C (dose: 100.0 mg/kg/injection, schedule: Q04DX003 (ip), vehicle: saline): 95 % of control
T/C (dose: 200.0 mg/kg/injection, schedule: Q04DX003 (ip), vehicle: saline): 92 % of control
T/C (dose: 400.0 mg/kg/injection, schedule: Q04DX003 (ip), vehicle: saline): 89 % of control

c1cncc(C(Nc2cccc3cccnc23)Nc2cccc3cccnc23)c1
T/C (dose: 60.0 mg/kg/injection, schedule: Q01DX005 (ip), vehicle: saline with Tween-80): 94 % of control
T/C (dose: 120.0 mg/kg/injection, schedule: Q01DX005 (ip), vehicle: saline with Tween-80): 91 % of control
T/C (dose: 240.0 mg/kg/injection, schedule: Q01DX005 (ip), vehicle: saline with Tween-80): 90 % of control

CC(/C=C/c1ccccc1)=N\NC(=O)c1ccccc1O
T/C [1]: 93 % of control
T/C [2]: 95 % of control
T/C [3]: 89 % of control

COC(=O)c1ccc(C)[n+](C2OC(COC(=O)c3ccccc3)C(OC(=O)c3ccccc3)C2OC(=O)c2ccccc2)c1 (configuration not stated)
T/C (dose: 50.0 mg/kg/injection, schedule: Q01DX005 (ip), vehicle: saline + Tween-80 + alcohol): 100 % of control
T/C (dose: 100.0 mg/kg/injection, schedule: Q01DX005 (ip), vehicle: saline + Tween-80 + alcohol): 100 % of control
T/C (dose: 200.0 mg/kg/injection, schedule: Q01DX005 (ip), vehicle: saline + Tween-80 + alcohol): 98 % of control

CCc1nc(-c2ccccc2)nc2c1nc(C(C)C)n2Nc1ccccc1
T/C [4]: 104 % of control
T/C [5]: 93 % of control
T/C (dose: 400.0 mg/kg/injection, schedule: Q01DX001 (ip), vehicle: saline with Tween-80): 89 % of control

COP(=O)(OC)C1(C)CO1 (configuration not stated)
T/C (dose: 50.0 mg/kg/injection, schedule: Q01DX009 (ip), vehicle: Klucel (hydroxypropylcellulose) (HPC)): 87 % of control
T/C (dose: 100.0 mg/kg/injection, schedule: Q01DX009 (ip), vehicle: Klucel (hydroxypropylcellulose) (HPC)): 91 % of control
T/C (dose: 200.0 mg/kg/injection, schedule: Q01DX009 (ip), vehicle: Klucel (hydroxypropylcellulose) (HPC)): 86 % of control

O=C(Nc1ccc([N+](=O)[O-])cc1C(Sc1ccccc1)c1ccccc1)c1ccc([N+](=O)[O-])cc1 (configuration not stated)
T/C [4]: 94 % of control
T/C [5]: 87 % of control

CN(Cc1cnc2nc(N)nc(N)c2n1)c1ccc(C(=O)NC(CCC(=O)NC(CCC(=O)O)C(=O)O)C(=O)O)cc1 (configuration not stated)
T/C (dose: 1.56 mg/kg/injection, schedule: Q01DX009 (ip), vehicle: Klucel (hydroxypropylcellulose) (HPC)): 184 % of control and 218 % of control
T/C (dose: 3.12 mg/kg/injection, schedule: Q01DX009 (ip), vehicle: Klucel (hydroxypropylcellulose) (HPC)): 214 % of control and 94 % of control
T/C (dose: 6.25 mg/kg/injection, schedule: Q01DX009 (ip), vehicle: Klucel (hydroxypropylcellulose) (HPC)): 88 % of control

CCC(=O)CC(O)CC(C)CC(NC(=O)C1CC(C)CN1C(=O)/C=C/C(C)CC)C(=O)NC(C(=O)NC(C)(C)C(=O)NC(CC(C)C)C(=O)NC(CC(C)C)C(=O)NC(C)(C)C(=O)NC(C)(C)C(=O)NCCC(=O)NC(C)CN(C)C)C(O)C(C)C (configuration not stated) (X3-[ξPro(4ξ-Me)][X4][ξLeu(3ξ-OH)][Aib]LL[Aib][Aib][βAla]-X5; configuration not given here)
T/C (dose: 50.0 micrograms/kg/injection, schedule: Q01DX005 (ip), vehicle: saline + alcohol): 101 % of control
T/C (dose: 100.0 micrograms/kg/injection, schedule: Q01DX005 (ip), vehicle: saline + alcohol): 101 % of control
T/C (dose: 200.0 micrograms/kg/injection, schedule: Q01DX005 (ip), vehicle: saline + alcohol): 101 % of control
T/C (dose: 400.0 micrograms/kg/injection, schedule: Q01DX005 (ip), vehicle: saline + alcohol): 111 % of control
T/C (dose: 800.0 micrograms/kg/injection, schedule: Q01DX005 (ip), vehicle: saline + alcohol): 110 % of control

CNC(=S)N/N=C/Cn1cc([N+](=O)[O-])c(=O)[nH]c1=O
T/C (dose: 50.0 mg/kg/injection, schedule: Q01DX005 (ip), vehicle: Klucel (hydroxypropylcellulose) (HPC)): 98 % of control
T/C (dose: 100.0 mg/kg/injection, schedule: Q01DX005 (ip), vehicle: Klucel (hydroxypropylcellulose) (HPC)): 100 % of control

COc1ccc(C2c3cc4c(cc3OC(C)(O)C2C)OCO4)c(OC)c1 (configuration not stated)
T/C [1]: 98 % of control
T/C [2]: 97 % of control
T/C [3]: 100 % of control

COc1cc(OC(C)C)cc2c1C(=O)C(C(O)(O)C(F)(F)F)=CC2=O
T/C (dose: 15.0 mg/kg/injection, schedule: Q01DX005 (ip), vehicle: Klucel (hydroxypropylcellulose) (HPC)): 109 % of control
T/C (dose: 30.0 mg/kg/injection, schedule: Q01DX005 (ip), vehicle: Klucel (hydroxypropylcellulose) (HPC)): 103 % of control
T/C [1]: 99 % of control
